Experimental findings from US8569511B2, “Substituted 3-(1H-benzo[d]imidazol-2-yl)-1H-indazole analogs as inhibitors of the PDK1 kinase” (University of Utah Research Foundation, priority 2011, dated 2013) are described below.

The target of experiment [1] is PDK1 (Homo sapiens (Human), UniProt O15530). Description: PDK1 fluorometric activity assay performed by Life Technologies. It counts as biochemical. As to conditions: for pIC50: fluorometric assay performed by Life Technologies (Table IV), read-out: PDK1 Kinase assays (IC50). As for the experimental part: PDK1 biochemical activity was measured by a fluorometric assay performed by Life Technologies (Grand Island, N.Y.). The assay conditions for PDK1 are as follows. The 2×PDK1/Ser/Thr-07 mixture is prepared in 50 mM Tris pH 8.5, 0.01% BRIJ-35, 10 mM MgCl2, 1 mM EGTA, 0.02% NaN3.
The kinase specificity was measured using fluorometric assays performed by Life Technologies (Grand Island, N.Y.). Assay conditions vary for each kinase and are available from Life Technologies, Grand Island, NY. For example, the assay conditions for PDK1 are as follows. The 2×PDK1/Ser/Thr-07 mixture is prepared in 50 mM Tris pH 8.5, 0.01% BRIJ-35, 10 mM MgCl2, 1 mM EGTA, 0.02% NaN3.

The subject of experiment [2] is AN3-CA cells. Description: Cell viability assay (ATP-lite). It counts as cell-based. How it is done:
(§1) AN3-CA (PTEN-deficient), RL95-2 (PTEN-deficient), and HEC-1A (PTEN-wild type) cells were plated in 45 μl of RPMI-1640 media supplemented with 10% FBS and 1% Pen/Strep at a density of 1000 cells per well in white 384-well plates. Cells were allowed to attach by incubation overnight at 37° C. and 5% CO2. Test compounds were diluted to 10× concentrations in RPMI-1640 media (containing 3% DMSO) and 5 μl 1 of these dilutions were added in triplicate to the appropriate wells containing the cells. The plates containing the drug-treated cells and appropriate controls were incubated for 96 hours. At the end of the incubation, 40 μl of ATP-lite (PerkinElmer, Inc., Waltham, Massachussetts) reagent were added to each well and luminescence signal was measured on an EnVision microplate reader.
Alternatively, AN3-CA, RL95-2, HEC-1A endometrial cancer cell lines were plated at a density of 2000 cells per well in a 96 well culture plate in 45 μl of cell culture media and incubated overnight. The following day, test compounds were added to the cells in 5 μl of serum-free media to generate final concentrations of 10, 3, 1, 0.3, 0.1, 0.03, 0.01, or 0.003 μM. Vehicle treated controls were also included and each condition was applied in quadruplicate. Following 96 hours of incubation, 35 μL of ATP-lite (PerkinElmer) reagent was added each well and allowed to react for 10 minutes. Plate was read on a Envision 2104 MultiLabel reader (PerkinElmer).
(§2) IC50 values are determined using GraphPad Prism 5 software. The data were entered as an X-Y plot into the software as percent inhibition for each concentration of the drug. The concentration values of the drug were log transformed and the nonlinear regression was carried out using the “sigmoidal dose-response (variable slope)” option within the GraphPad software to model the data and calculate IC50 values.

In experiment [3] the test system is HEC-1A cells. Description: Cell viability assay (ATP-lite). It counts as cell-based. As to conditions: for pIC50: Homo sapiens. How it is done:
as §1
(§3) Alternatively, AN3-CA, RL95-2, HEC-1A endometrial cancer cell lines were plated at a density of 2000 cells per well in a 96 well culture plate in 45 μl of cell culture media and incubated overnight. […] Vehicle treated controls were also included and each condition was applied in quadruplicate. Following 96 hours of incubation, 35 μL of ATP-lite (PerkinElmer) reagent was added each well and allowed to react for 10 minutes. Plate was read on a Envision 2104 MultiLabel reader (PerkinElmer).
as §2

For experiment [4], the system named is RL95-2 cells. Description: Cell viability assay (ATP-lite). It counts as cell-based. As to conditions: for pIC50: Homo sapiens. As for the experimental part: as §1, §3, §2
Experiment [5] concerns NCCIT. Nature of the experiment: Cell viability assay, cancer cell line panel. It counts as cell-based. Particulars: Homo sapiens, mutation PTEN.
The subject of experiment [6] is AGS. Nature of the experiment: Cell viability assay, cancer cell line panel. It counts as cell-based. Particulars: Homo sapiens, mutation KRAS, PIK3CA.
For experiment [7], the system named is BT549. Nature of the experiment: Cell viability assay, cancer cell line panel. Format: cell-based. Particulars: Homo sapiens, BT-549; mutation PTEN.
For experiment [8], the system named is 786-O. Nature of the experiment: Cell viability assay, cancer cell line panel. Particulars: Homo sapiens, 786-0; mutation PTEN. It counts as cell-based.
Experiment [9] concerns MCF-7. Nature of the experiment: Cell viability assay, cancer cell line panel. Format: cell-based. As to conditions: Homo sapiens, MCF7; mutation PIK3CA.
Experiment [10] deals with H1975. Nature of the experiment: Cell viability assay, cancer cell line panel. Format: cell-based. As to conditions: Homo sapiens, NCI-H1975; mutation PIK3CA.
Experiment [11] concerns LNCap. Description: Cell viability assay, cancer cell line panel. Format: cell-based. Particulars: Homo sapiens, mutation PTEN.
For experiment [12], the system named is KG-1 cell line. Nature of the experiment: Screen of further cell lines. Format: cell-based. As to conditions: acute myeloid leukemic line. The source says: (§4) In order to determine if there were additional cell lines that were profoundly sensitive to this compound, a further 82 cell lines were screened which represented more than 20 different tumor types of origin. […] Without wishing to bound by a particular theory, these three additional cell lines are all acute myeloid leukemic lines that have different activating mutations in oncogenes that have been associated with elevated PI3K activity. MV4-11 has the FLT3 internal tandem duplication (ITD) and Kasumi-1 has amplified and mutated c-kit as well as the AML-ETO gene fusion. […] All three lines have wild-type PTEN but have shown to express very low levels of PTEN protein, which makes them functionally deficient for PTEN.

The test system of experiment [13] is Kasumi cell line. Description: Screen of further cell lines. Particulars: acute myeloid leukemic line. Format: cell-based.
Source text: as §4

The test system of experiment [14] is MV4-11 cell line. Nature of the experiment: Screen of further cell lines. It counts as cell-based. Particulars: acute myeloid leukemic line.
Source text: as §4

Experiment [15] deals with HS578T cell line. Description: Cell viability after PTEN shRNA knockdown. Particulars: Homo sapiens, Hs-578T. Format: cell-based. As for the experimental part: The lentiviral particles with PTEN shRNA or scrambled siRNA (ssi RNA) were purchased from Thermo Scientific. The cells were seeded in a 24-well plate and incubated overnight in RPMI full media. The media was removed and the cells were transfected with either siRNA or ssiRNA particles in serum/antibiotic free RPMI media. Six hours post-transduction, 1 ml of full media (serum plus penicillin/streptomycin) was added and the cells were incubated overnight. At 48 hours post-transduction fresh media with puromycin was added. The media was replaced with fresh puromycin containing media every 2 days. qPCR and western blot analysis was used to evaluate the level of PTEN knockdown.
as §1
In the figures, cell viability is shown as “Toxicity” and the cell viability assay was carried out as described above.

The mark [16] stands for this setting: Homo sapiens, AN3-CA, AN3-CA (PTEN and PIK3R1 mutations), read-out: Cell Viability IC50 AN3-CA.
[17] abbreviates: PTEN knockdown shRNA, read-out: IC50 for cell viability, PTEN knockdown shRNA cells.

pIC50: −log10 of the molar value. Where two headings read alike, the source gives them in different places.

Chain of PDK1 (O15530 whole entry): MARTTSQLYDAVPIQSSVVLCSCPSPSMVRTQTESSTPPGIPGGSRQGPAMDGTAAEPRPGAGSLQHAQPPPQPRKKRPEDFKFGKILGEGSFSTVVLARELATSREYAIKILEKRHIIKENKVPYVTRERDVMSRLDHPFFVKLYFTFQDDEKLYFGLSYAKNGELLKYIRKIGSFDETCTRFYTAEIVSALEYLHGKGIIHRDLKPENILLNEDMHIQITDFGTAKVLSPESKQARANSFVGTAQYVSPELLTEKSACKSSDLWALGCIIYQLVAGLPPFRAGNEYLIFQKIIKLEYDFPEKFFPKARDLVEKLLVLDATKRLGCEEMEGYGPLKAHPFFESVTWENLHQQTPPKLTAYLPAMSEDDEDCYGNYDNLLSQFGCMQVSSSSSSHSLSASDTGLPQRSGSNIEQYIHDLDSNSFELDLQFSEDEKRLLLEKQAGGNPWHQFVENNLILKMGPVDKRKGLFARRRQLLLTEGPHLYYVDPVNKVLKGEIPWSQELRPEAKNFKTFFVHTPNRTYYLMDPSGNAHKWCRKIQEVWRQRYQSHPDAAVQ

`O=C(Nc1ccc2[nH]nc(-c3nc4ccc(N5CCOCC5)cc4[nH]3)c2c1)C1CC1(F)F` (centres unmarked) [Compound 1, 2,2-difluoro-N-(3-(5-morpholino-1H-benzo[d]imidazol-2-yl)-1H-indazol-5-yl)cyclopropanecarboxamide]: the pIC50 in experiment [1] is 7.10; in experiment [2] (setting [16]), 7.57; in experiment [2] (Homo sapiens, AN3-CA, Table VI panel, mutation PTEN, PIK3R1, read-out: IC50 cell viability, AN3-CA), 7.32; in experiment [2] (Homo sapiens, AN3-CA, read-out: IC50 cell viability, AN3-CA cells) it was 7.57; in experiment [3] (HEC-1-A, Table VI panel, mutation KRAS, PIK3CA, read-out: IC50 cell viability, Hec-1A), 5.42; in experiment [3] (HEC-1A (PTEN-wild type), read-out: Cell Viability IC50 HEC-1A) it was 5.42. Further, the pIC50 in experiment [4] (RL95-2, Table VI panel, mutation PTEN, HRAS, read-out: IC50 cell viability, RL95-2) was 6.18; in experiment [4] (RL95-2, read-out: IC50 cell viability, RL-95-A), 6.32; in experiment [4] (RL95-2 (PTEN mutation), read-out: Cell Viability IC50 RL95-2), 6.32; in [5] it was 5.68; in [6], 5.56; in [7], 5.50. Moreover, the pIC50 in [8] was 5.22; in [9], 5.06; in [10], 5.01; in [11] it was 4.61; in [15] (setting [17]), 5.92. For the same compound, the “Kinase profiling activity against PDK1 (in words)” value in experiment [1] (profiling at 500 nM, FIG. 8) is listed as “good activity”. For the same compound, the “Potency in cell viability assay, AN3-CA (in words)” value in experiment [2] (FIG. 6) is listed as “most potent”. For the same compound, the “Potency in cell viability assay, HEC-1A (in words)” value in experiment [3] (FIG. 6) is “relatively inactive”. The “Potency in cell viability assay, RL-95-2 (in words)” value in experiment [4] (FIG. 6) was “moderately potent”. Also, the “Sensitivity of KG-1 cell line” value in [12] was “very sensitive”. Also, in experiment [13], the “Sensitivity of Kasumi cell line” value is “very sensitive”. In experiment [14], the “Sensitivity of MV4-11 cell line” value is “very sensitive”.

In the case of `CC1CN(c2ccc3nc(-c4n[nH]c5ccc(NC(=O)C6CC6(F)F)cc45)[nH]c3c2)CCO1` (centres unmarked) [Compound 2, 2,2-difluoro-N-(3-(5-(2-methylmorpholino)-1H-benzo[d]imidazol-2-yl)-1H-indazol-5-yl)cyclopropanecarboxamide], the pIC50 is 7.03 in [1]; 7.64 in [2] (AN3-CA (PTEN and PIK3R1 mutations), listed as Test Compound 2, read-out: Cell Viability IC50 AN3-CA); above 7.52 in experiment [2] (setting [16]); 6.10 in [15] (setting [17]); 5.66 in experiment [15] (control (scrambled) treated cells, read-out: IC50 for cell viability, control treated cells).
